Assay results from ChEMBL document CHEMBL2146470, “Novel Carboxamide-Based Allosteric MEK Inhibitors: Discovery and Optimization Efforts toward XL518 (GDC-0973)” (ACS Med Chem Lett, 2012).

Experiments:
[1] = Antitumor activity against human MDA-MB-231T cells xenografted in athymic nude NCr mouse assessed as tumor growth inhibition at 1 mg/kg administered qd for 14 days relative to control; assay type: functional; conditions: 336 h, read-out: GI
Mus musculus [2] = test: Inhibition of MEK-mediated ERK T202/Y204 phosphorylation in human MDA-MB-231T cells xenografted in nude NCr mouse tumor at 10 mg/kg, po after 24 hrs by immunoblotting; assay type: functional
[3] = Drug metabolism in human liver microsomes at 15 uM after 30 mins; assay type: ADME, Microsome; conditions: read-out: Drug metabolism
[4] = Drug uptake in brain of nude NCr mouse xenografted with human MDA-MB-231T cells at 5 mg/kg, po measured after 24 hrs by LC-MS analysis; assay type: ADME, organism-based; parameters: dose 5 mg/kg, route oral; conditions: read-out: Drug uptake
Mus musculus [5] = test: Inhibition of MEK-mediated ERK T202/Y204 phosphorylation in human MDA-MB-231T cells xenografted in nude NCr mouse tumor at 5 mg/kg, po after 24 hrs by immunoblotting; assay type: functional
Mus musculus [6] = test: Inhibition of MEK-mediated ERK T202/Y204 phosphorylation in nude NCr mouse brain xenografted with human MDA-MB-231T cells at 20 mg/kg, po after 24 hrs by immunoblotting; assay type: functional
Mus musculus [7] = test: Inhibition of MEK-mediated ERK T202/Y204 phosphorylation in nude NCr mouse brain xenografted with human MDA-MB-231T cells at 5 mg/kg, po after 24 hrs by immunoblotting; assay type: functional
[8] = Drug uptake in tumor of nude NCr mouse xenografted with human MDA-MB-231T cells at 20 mg/kg, po measured after 24 hrs by LC-MS analysis; assay type: ADME, organism-based, Neoplasm; parameters: dose 20 mg/kg, route oral; conditions: read-out: Drug uptake
[9] = Drug metabolism in rat liver microsomes at 15 uM after 30 mins; assay type: ADME, Microsome; conditions: read-out: Drug metabolism
[10] = Protein binding in serum; assay type: ADME, cell-free
Mus musculus [11] = test: Inhibition of MEK-mediated ERK T202/Y204 phosphorylation in nude NCr mouse brain xenografted with human MDA-MB-231T cells at 100 mg/kg, po after 24 hrs by immunoblotting; assay type: functional
[12] = Half life in Sprague-Dawley rat at 5 mg/kg, po; assay type: ADME, organism-based; parameters: dose 5 mg/kg, route oral; conditions: in vivo
Salmonella typhimurium = test: Mutagenic activity in Salmonella typhimurium by Ames test; assay type: toxicity, organism-based; conditions: salmonella enterica subsp. enterica serovar typhimurium
Brain = test: Drug metabolism in brain of nude NCr mouse xenografted with human MDA-MB-231T cells assessed as 3,4-difluoro-2-(2-fluoro-4-iodophenylamino)benzoic acid level at 100 mg/kg, po measured after 24 hrs by LC-MS analysis; assay type: ADME, organism-based; parameters: dose 100 mg/kg, route oral; conditions: in vivo
Rattus norvegicus [13] = test: Dose normalised AUC (0 to t) in Sprague-Dawley rat at 5 mg/kg, po; assay type: ADME, organism-based; parameters: dose 5 mg/kg, route oral; conditions: in vivo
Mus musculus [14] = test: Inhibition of MEK-mediated ERK T202/Y204 phosphorylation in human MDA-MB-231T cells xenografted in po dosed nude NCr mouse tumor after 24 hrs by immunoblotting; assay type: functional
Mus musculus [15] = test: Inhibition of MEK-mediated ERK T202/Y204 phosphorylation in nude NCr mouse brain xenografted with human MDA-MB-231T cells at 10 mg/kg, po after 24 hrs by immunoblotting; assay type: functional
[16] = Drug uptake in tumor of nude NCr mouse xenografted with human MDA-MB-231T cells at 5 mg/kg, po measured after 24 hrs by LC-MS analysis; assay type: ADME, organism-based; parameters: dose 5 mg/kg, route oral; conditions: read-out: Drug uptake
[17] = Plasma concentration in nude NCr mouse xenografted with human MDA-MB-231T cells at 10 mg/kg, po measured after 24 hrs by LC-MS analysis; assay type: ADME, organism-based; parameters: dose 10 mg/kg, route oral
[18] = Plasma concentration in nude NCr mouse xenografted with human MDA-MB-231T cells at 5 mg/kg, po measured after 24 hrs by LC-MS analysis; assay type: ADME, organism-based; parameters: dose 5 mg/kg, route oral
[19] = Plasma concentration in nude NCr mouse xenografted with human MDA-MB-231T cells at 100 mg/kg, po measured after 24 hrs by LC-MS analysis; assay type: ADME, organism-based; parameters: dose 100 mg/kg, route oral
[20] = Oral bioavailability in Sprague-Dawley rat at 5 mg/kg; assay type: ADME, organism-based; conditions: in vivo
[21] = Plasma concentration in athymic nude NCr mouse xenografted with human MDA-MB-231T cells at 3 mg/kg administered qd for 14 days; assay type: ADME, organism-based; parameters: dose 3 mg/kg
[22] = Clearance in Sprague-Dawley rat at 5 mg/kg, po; assay type: ADME, organism-based; parameters: dose 5 mg/kg, route oral; conditions: in vivo
[23] = Apparent permeability across MDCK cells; assay type: ADME, cell-based, Canis lupus familiaris; conditions: dog
[24] = Drug uptake in tumor of nude NCr mouse xenografted with human MDA-MB-231T cells at 10 mg/kg, po measured after 24 hrs by LC-MS analysis; assay type: ADME, organism-based, Neoplasm; parameters: dose 10 mg/kg, route oral; conditions: read-out: Drug uptake
[25] = Drug uptake in tumor of nude NCr mouse xenografted with human MDA-MB-231T cells at 100 mg/kg, po measured after 24 hrs by LC-MS analysis; assay type: ADME, organism-based, Neoplasm; parameters: dose 100 mg/kg, route oral; conditions: read-out: Drug uptake
[26] = Drug uptake in brain of nude NCr mouse xenografted with human MDA-MB-231T cells at 100 mg/kg, po measured after 24 hrs by LC-MS analysis; assay type: ADME, organism-based; parameters: dose 100 mg/kg, route oral; conditions: read-out: Drug uptake
Mus musculus [27] = test: Inhibition of MEK-mediated ERK T202/Y204 phosphorylation in human MDA-MB-231T cells xenografted in nude NCr mouse tumor at 100 mg/kg, po after 24 hrs by immunoblotting; assay type: functional
[28] = Drug uptake in brain of nude NCr mouse xenografted with human MDA-MB-231T cells at 20 mg/kg, po measured after 24 hrs by LC-MS analysis; assay type: ADME, organism-based; parameters: dose 20 mg/kg, route oral; conditions: read-out: Drug uptake
[29] = target: Dual specificity mitogen-activated protein kinase kinase 1 (Homo sapiens, UniProt Q02750)
Description: Inhibition of MEK1-mediated ERK2 T202/Y204 phosphorylation using biotinylated MBP as substrate preincubated for 30 mins measured after 100 mins by cRAF-MEK-ERK enzyme coupled assay

Rattus norvegicus [30] = test: Toxicity against po dosed rat assessed as adverse effect administered as subchronical dose; assay type: organism-based; conditions: in vivo
Mus musculus [31] = test: Inhibition of MEK-mediated ERK T202/Y204 phosphorylation in human MDA-MB-231T cells xenografted in nude NCr mouse tumor at 20 mg/kg, po after 24 hrs by immunoblotting; assay type: functional
[32] = target: Dual specificity mitogen-activated protein kinase kinase; MEK1/2 (Homo sapiens, UniProt P36507+Q02750)
Description: Inhibition of MEK-mediated ERK T202/Y204 phosphorylation in human MDA-MB-231T cells after 1 hr by immunoblotting

[33] = Plasma concentration in nude NCr mouse xenografted with human MDA-MB-231T cells at 20 mg/kg, po measured after 24 hrs by LC-MS analysis; assay type: ADME, organism-based; parameters: dose 20 mg/kg, route oral
[34] = Antitumor activity against human MDA-MB-231T cells xenografted in athymic nude NCr mouse assessed as tumor growth inhibition at 3 mg/kg administered qd for 14 days relative to control; assay type: functional; conditions: 336 h, read-out: GI
[35] = Drug uptake in brain of nude NCr mouse xenografted with human MDA-MB-231T cells at 10 mg/kg, po measured after 24 hrs by LC-MS analysis; assay type: ADME, organism-based; parameters: dose 10 mg/kg, route oral; conditions: read-out: Drug uptake

Sequence of Dual specificity mitogen-activated protein kinase kinase 1 (Q02750 whole entry): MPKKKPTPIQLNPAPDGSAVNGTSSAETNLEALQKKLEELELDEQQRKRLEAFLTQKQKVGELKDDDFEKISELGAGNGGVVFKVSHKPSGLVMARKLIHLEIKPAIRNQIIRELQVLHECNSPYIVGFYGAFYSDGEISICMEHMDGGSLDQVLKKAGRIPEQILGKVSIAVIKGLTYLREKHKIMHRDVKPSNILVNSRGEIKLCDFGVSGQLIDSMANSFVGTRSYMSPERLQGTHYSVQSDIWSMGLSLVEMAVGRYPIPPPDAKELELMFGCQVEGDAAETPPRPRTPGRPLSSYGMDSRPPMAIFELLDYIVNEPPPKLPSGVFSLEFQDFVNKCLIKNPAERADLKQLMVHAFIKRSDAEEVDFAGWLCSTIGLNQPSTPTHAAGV

In the case of O=C(c1ccc(F)c(F)c1Nc1ccc(I)cc1F)N1CC(O)([C@@H]2CCCCN2)C1 [COBIMETINIB], the inhibition in vivo at 1 mg/kg [1] is reported as 60%, the inhibition in vivo at 10 mg/kg (Mus musculus [2]) is reported as 45% and the metabolised at 0.5 h, 15 µM [3] is reported as 13.8%. For the same compound, the concentration at 24 h [4] was less than 4 nM, the inhibition in vivo at 5 mg/kg (Mus musculus [5]) was 16% and the inhibition in vivo at 20 mg/kg (Mus musculus [6]) was 2%. It also gave an inhibition in vivo at 5 mg/kg (Mus musculus [7]) of 8%, a concentration at 24 h [8] of 3590 nM and a metabolised at 0.5 h, 15 µM [9] of 22.4%. For the same compound, the Activity [10] was 94%, the inhibition in vivo at 100 mg/kg (Mus musculus [11]) was 0% and the half-life [12] was 6.1 h. The Activity (Salmonella typhimurium) was “Non-toxic”, the Drug uptake (Brain) was “Not Active” and the AUCt/dose (Rattus norvegicus [13]) was 0.35 µM·h/mg/kg. It also gave an ED90 (Mus musculus [14]) of 39.7 mg/kg, an inhibition in vivo at 10 mg/kg (Mus musculus [15]) of 7% and a concentration at 24 h [16] of 530 nM. The concentration at 24 h [17] was 100 nM, the concentration at 24 h [18] was less than 4 nM and the concentration at 24 h [19] was 120 nM. For the same compound, the bioavailability [20] was 77%, the concentration at 336 h [21] was 130 nM and the CL/F [22] was 59.4 mL/min/kg. The Papp [23] was 10.5 ×10⁻⁶ cm/s, the concentration at 24 h [24] was 1990 nM and the concentration at 24 h [25] was 22800 nM. For the same compound, the concentration at 24 h [26] was 220 nM, the inhibition in vivo at 100 mg/kg (Mus musculus [27]) was 87% and the concentration at 24 h [28] was less than 4 nM. The IC50 [29] was 0.9 nM, the Activity (Rattus norvegicus [30]) was “Non-toxic” and the inhibition in vivo at 20 mg/kg (Mus musculus [31]) was 75%. It also gave an IC50 [32] of 0.2 nM, a concentration at 24 h [33] of 100 nM and an inhibition in vivo at 3 mg/kg [34] of 93%. The concentration at 24 h [35] was less than 4 nM.
